{
  "source": "ChEMBL document CHEMBL1201862",
  "about": "“PubChem BioAssay data set” (2004)",
  "assay_in_all_cases": "growth of human tumour cells (NCI), 48 h",
  "key": {"[1]": {"test_system": "KM12"}, "[2]": {"test_system": "OVCAR-8"}, "[3]": {"test_system": "SK-MEL-2"}, "[4]": {"test_system": "ACHN"}, "[5]": {"test_system": "A498"}, "[6]": {"test_system": "CAKI-1"}, "[7]": {"test_system": "K562"}, "[8]": {"test_system": "RPMI-8226"}, "[9]": {"test_system": "SF-539"}, "[10]": {"test_system": "U-251"}, "[11]": {"test_system": "HOP-62"}, "[12]": {"test_system": "HCT-15"}, "[13]": {"test_system": "M14"}, "[14]": {"test_system": "UACC-62"}, "[15]": {"test_system": "SW-620"}, "[16]": {"test_system": "OVCAR-3"}, "[17]": {"test_system": "EKVX"}, "[18]": {"test_system": "SF-268"}, "[19]": {"test_system": "A549"}, "[20]": {"test_system": "NCI-H23"}, "[21]": {"test_system": "HCT-116"}, "[22]": {"test_system": "MDA-MB-435"}, "[23]": {"test_system": "COLO 205"}, "[24]": {"test_system": "NCI-H460"}, "[25]": {"test_system": "SK-MEL-5"}, "[26]": {"test_system": "UACC-257"}, "[27]": {"test_system": "SNB-75"}, "[28]": {"test_system": "IGROV-1"}, "[29]": {"test_system": "NCI-H522"}, "[30]": {"test_system": "MOLT-4"}, "[31]": {"test_system": "MCF7"}, "[32]": {"test_system": "786-0"}, "[33]": {"test_system": "SN12C"}, "[34]": {"test_system": "HT-29"}, "[35]": {"test_system": "BT-549"}, "[36]": {"test_system": "SR"}, "[37]": {"test_system": "CCRF-CEM"}, "[38]": {"test_system": "DU-145"}, "[39]": {"test_system": "MDA-MB-231"}, "[40]": {"test_system": "RXF 393"}, "[41]": {"test_system": "NCI/ADR-RES"}, "[42]": {"test_system": "SK-MEL-28"}, "[43]": {"test_system": "NCI-H226"}, "[44]": {"test_system": "MDA-N"}, "[45]": {"test_system": "HCC 2998"}, "[46]": {"test_system": "SF-295"}, "[47]": {"test_system": "LOX IMVI"}, "[48]": {"test_system": "TK-10"}, "[49]": {"test_system": "SK-OV-3"}, "[50]": {"test_system": "Malme-3M"}, "[51]": {"test_system": "UO-31"}, "[52]": {"test_system": "Hs-578T"}, "[53]": {"test_system": "PC-3"}, "[54]": {"test_system": "SNB-19"}},
  "note": "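96-well plates; 48 h exposure; 5 concentrations. Endpoints by linear interpolation between flanking doses. Not reached: highest tested concentration assigned. Here, GI50 denotes the concentration required for 50% inhibition of growth.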 The source made the active and inactive calls. Cut-off read from the data, not from the text of the source: active = GI50 up to about 1.1 µM and inactive = higher.",
  "data": [
    {"smiles": "CCOC(=O)CC1c2ccc(O)cc2OC(=O)C1c1ccc(N)cc1", "note": "(centres undefined)", "values": [
      {"measurement": "GI50", "setting": "[1]", "value": "> 100 µM (inactive)"},
      {"measurement": "GI50", "setting": "[2]", "value": "95.9 µM (inactive)"},
      {"measurement": "GI50", "setting": "[3]", "value": "> 100 µM (inactive)"},
      {"measurement": "GI50", "setting": "[4]", "value": "> 100 µM (inactive)"},
      {"measurement": "GI50", "setting": "[5]", "value": "> 100 µM (inactive)"},
      {"measurement": "GI50", "setting": "[6]", "value": "> 100 µM (inactive)"},
      {"measurement": "GI50", "setting": "[7]", "value": "> 100 µM (inactive)"},
      {"measurement": "GI50", "setting": "[8]", "value": "> 100 µM (inactive)"},
      {"measurement": "GI50", "setting": "[9]", "value": "56.6 µM (inactive)"},
      {"measurement": "GI50", "setting": "[10]", "value": "> 100 µM (inactive)"},
      {"measurement": "GI50", "setting": "[11]", "value": "4.34 µM (inactive)"},
      {"measurement": "GI50", "setting": "[12]", "value": "> 100", "unit": "µM"},
      {"measurement": "GI50", "setting": "[13]", "value": "> 100 µM (inactive)"},
      {"measurement": "GI50", "setting": "[14]", "value": "> 100 µM (inactive)"},
      {"measurement": "GI50", "setting": "[15]", "value": "> 100 µM (inactive)"},
      {"measurement": "GI50", "setting": "[16]", "value": "> 100 µM (inactive)"},
      {"measurement": "GI50", "setting": "[17]", "value": "> 100 µM (inactive)"},
      {"measurement": "GI50", "setting": "[18]", "value": "98.4 µM (inactive)"},
      {"measurement": "GI50", "setting": "[19]", "value": "> 100 µM (inactive)"},
      {"measurement": "GI50", "setting": "[20]", "value": "> 100 µM (inactive)"},
      {"measurement": "GI50", "setting": "[21]", "value": "> 100 µM (inactive)"},
      {"measurement": "GI50", "setting": "[22]", "value": "> 100 µM (inactive)"},
      {"measurement": "GI50", "setting": "[23]", "value": "> 100 µM (inactive)"},
      {"measurement": "GI50", "setting": "[24]", "value": "> 100 µM (inactive)"},
      {"measurement": "GI50", "setting": "[25]", "value": "> 100 µM (inactive)"},
      {"measurement": "GI50", "setting": "[26]", "value": "> 100 µM (inactive)"},
      {"measurement": "GI50", "setting": "[27]", "value": "84.9 µM (inactive)"},
      {"measurement": "GI50", "setting": "[28]", "value": "> 100 µM (inactive)"},
      {"measurement": "GI50", "setting": "[29]", "value": "86.7 µM (inactive)"},
      {"measurement": "GI50", "setting": "[30]", "value": "> 100 µM (inactive)"},
      {"measurement": "GI50", "setting": "[31]", "value": "> 100 µM (inactive)"},
      {"measurement": "GI50", "setting": "[32]", "value": "> 100 µM (inactive)"},
      {"measurement": "GI50", "setting": "[33]", "value": "> 100 µM (inactive)"},
      {"measurement": "GI50", "setting": "[34]", "value": "> 100 µM (inactive)"},
      {"measurement": "GI50", "setting": "[35]", "value": "> 100 µM (inactive)"},
      {"measurement": "GI50", "setting": "[36]", "value": "> 100 µM (inactive)"},
      {"measurement": "GI50", "setting": "[37]", "value": "> 100 µM (inactive)"},
      {"measurement": "GI50", "setting": "[38]", "value": "> 100 µM (inactive)"},
      {"measurement": "GI50", "setting": "[39]", "value": "> 100 µM (inactive)"},
      {"measurement": "GI50", "setting": "[40]", "value": "> 100 µM (inactive)"},
      {"measurement": "GI50", "setting": "[41]", "value": "> 100 µM (inactive)"},
      {"measurement": "GI50", "setting": "[42]", "value": "> 100 µM (inactive)"},
      {"measurement": "GI50", "setting": "[43]", "value": "> 100 µM (inactive)"},
      {"measurement": "GI50", "setting": "[44]", "value": "> 100 µM (inactive)"},
      {"measurement": "GI50", "setting": "[45]", "value": "> 100 µM (inactive)"},
      {"measurement": "GI50", "setting": "[46]", "value": "> 100 µM (inactive)"},
      {"measurement": "GI50", "setting": "[47]", "value": "> 100 µM (inactive)"},
      {"measurement": "GI50", "setting": "[48]", "value": "> 100 µM (inactive)"},
      {"measurement": "GI50", "setting": "[49]", "value": "> 100 µM (inactive)"},
      {"measurement": "GI50", "setting": "[50]", "value": "> 100 µM (inactive)"},
      {"measurement": "GI50", "setting": "[51]", "value": "> 100 µM (inactive)"},
      {"measurement": "GI50", "setting": "[52]", "value": "66.1 µM (inactive)"},
      {"measurement": "GI50", "setting": "[53]", "value": "> 100 µM (inactive)"},
      {"measurement": "GI50", "setting": "[54]", "value": "> 100 µM (inactive)"}
    ]}
  ]
}
